Data published in article PMC7893776, “Selecting an anti-malarial clinical candidate from two potent dihydroisoquinolones” (Malaria Journal, 2021).
Values joined by “and” are separate entries in the source; they are usually repeats but may differ in a detail not shown here. Equal entries are not always repeated. Where two headings read alike, the source gives them in different places.

What was measured:
[1] = biological target: T1, CYP3A4 (Homo sapiens, UniProt P08684); assay: CYP450 inhibition, CYP3A4; type: in vitro ADME
T1 construct: purchased Cypex Ltd (Bactosomes)

[2] = Mouse plasma pharmacokinetics, single PO or IV dose; type: in vivo, female C57BL/6 mice; conditions: for AUCinf / CL / Cmax / Half-life / Vss / CL/F / Tmax / V/F: mouse plasma; for bioavailability: po, read-out: Mouse F (oral bioavailability)
Excerpt: Studies were undertaken to determine the plasma pharmacokinetics of SJ733 and SJ311. These studies included: (i) single oral gavage (PO) or intravenous (IV) dose administration to female C57BL/6 mice; (ii) single PO or IV dose administration to male Sprague Dawley (SD) rats; (iii) single PO or IV dose administration to male beagle dogs; (iv) toxicokinetic (TK) study following single PO administration to male SD rats. The PO and IV formulation used for mouse studies at SJCRH was 1% hydroxypropyl-beta-cyclodextrin (w/v), 10% ethanol (v/v), 10% propylene glycol (v/v), 40% PEG-400 (v/v) and 39% PBS (pH 7.4) isotonic (v/v). Compounds were dosed orally as suspensions, and intravenously as filtered solutions. Compound concentrations were confirmed post filtration using UV spectroscopy. The IV formulation used for rat studies (Monash University) was the same as that used for mice. For PO dosing to rats (Monash University) at 2 mg/kg, a suspension formulation was used containing 0.5% (w/v) hydroxypropyl methylcellulose, 0.5% (v/v) benzyl alcohol and 0.4% (v/v) Tween 80. The formulation used for rat studies at SRI (PO, high dose) was the same as that used in mouse PK studies. The formulation for the high dose TK study at SRI was 0.5% methylcellulose in sterile water. The formulation used for dog studies was the same as that used in mouse PK studies. The PO and IV PK of SJ733 and SJ311 were studied in female C57BL/6 mice. Mice had access to water and food ad libitum throughout the pre- and post-dose sampling period. Doses were administered at 15 mg/kg for IV and 10–200 mg/kg for PO with 20 mice in each dosage group. Two samples were taken from each mouse, with the first sample being a retro-orbital bleed (~ 200 µL) at the indicated time point (5, 15, 30 min, 1, 4, 24 h) and the second being terminal cardiac puncture (~ 500 µL) at the indicated time point (usually 48 h). EDTA disodium was used as anticoagulant and added to whole blood (10% volume of EDTA for 1% w/v final concentration) followed by centrifugation at 13,000 rpm for 2 min. Plasma was collected and stored frozen at -20 °C until analysis. For studies at SJCRH, all blood samples were kept on wet ice after collection and processed to plasma within 30 min of collection. Plasma samples were kept on dry ice and transferred to ≤ − 20 °C until analysis. Mouse plasma samples were extracted via protein precipitation with cold acetonitrile. The detection of the SJ733, SJ311, and warfarin (IS) was conducted by LC–MS with SIR or LC–MS/MS with MRM detection. Aliquots (3 µL) were injected onto a Waters Acquity UPLC equipped with an ABI Sciex 6500 Qtrap MS/MS and separated using an Acquity BEH C18 column (50 × 2.1 mm, 1.7 µm) with a methanol–water gradient containing 0.1% formic acid. Plasma concentration time (Ct) data for SJ733 and SJ311 were grouped by nominal time point, and the mean Ct values were subjected to noncompartmental analysis (NCA) using Phoenix WinNonlin 8.1 (Certara USA, Inc., Princeton, NJ). For all experiments, the area under the Ct and first moment curves (AUC, AUMC) were estimated using the “linear up log down” method. The terminal phase was defined as at least three time points at the end of the Ct profile, and the elimination rate constant (Kel) was estimated using an unweighted log-linear regression of the terminal phase. The terminal elimination half-life (T1/2) was estimated as 0.693/Kel, and the AUC from time 0 to infinity ([…]) was estimated as the AUC to the last time point (AUClast) + Clast (predicted)/Kel with the […] similarly calculated. Additional parameters estimated included observed maximum concentration (Cmax), time of Cmax (Tmax), concentration at the last observed time point (Clast), time of Clast (Tlast), and the apparent oral terminal volume of distribution (V/F). The apparent oral clearance (CL/F), systemic clearance (CL) and volume of distribution at steady state (Vss) were all estimated using standard formulae [19].

[3] = 10 µM, probe substrate Midazolam, replicate measurements
[4] = mouse, single PO 100 mg/kg vs IV
[5] = female, C57BL/6, mouse, plasma, mouse, summary over the oral doses studied
[6] = female, C57BL/6, single IV 15 mg/kg, read-out: Half-life

T1 sequence (P08684 whole entry): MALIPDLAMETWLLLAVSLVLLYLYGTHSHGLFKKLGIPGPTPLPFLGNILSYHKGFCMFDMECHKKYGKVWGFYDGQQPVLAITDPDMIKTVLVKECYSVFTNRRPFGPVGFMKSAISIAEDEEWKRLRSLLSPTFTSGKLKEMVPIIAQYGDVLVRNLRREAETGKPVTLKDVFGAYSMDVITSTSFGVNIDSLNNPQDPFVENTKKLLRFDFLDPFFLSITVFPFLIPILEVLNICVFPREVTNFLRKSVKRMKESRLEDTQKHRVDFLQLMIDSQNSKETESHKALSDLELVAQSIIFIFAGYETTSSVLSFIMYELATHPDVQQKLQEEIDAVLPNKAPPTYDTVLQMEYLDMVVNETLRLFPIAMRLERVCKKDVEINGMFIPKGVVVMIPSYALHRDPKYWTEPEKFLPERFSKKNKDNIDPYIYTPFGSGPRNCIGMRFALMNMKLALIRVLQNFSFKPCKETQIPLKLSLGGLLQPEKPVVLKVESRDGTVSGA

SMILES | inhibition of CYP3A4 [1, 3] | AUCinf ([2]; single IV 15 mg/kg) [µM·h] | CL ([2]; single IV 15 mg/kg) [mL/min/kg] | Cmax ([2]; single IV 15 mg/kg) [µM] | Half-life ([2]; single IV 15 mg/kg) [h] | Vss ([2]; single IV 15 mg/kg) [L/kg] | AUCinf ([2]; single PO 100 mg/kg) [µM·h] | CL/F ([2]; single PO 100 mg/kg) [mL/min/kg] | Cmax ([2]; single PO 100 mg/kg) [µM] | Half-life ([2]; single PO 100 mg/kg) [h] | Tmax ([2]; single PO 100 mg/kg) [h] | F [2, 4] [%] | CYP3A4 inhibition, in words [1] | bioavailability [2, 5] [%] | Half-life [2, 6] [h] | also measured
N#Cc1cc(NC(=O)C2c3ccccc3C(=O)N(CC(F)(F)F)C2c2cccnc2)ccc1F (racemic) [(r)-SJ733] | 42% and 33% | 10.8 | 49.7 | 11.3 | 1.52 | 2.41 |  |  |  |  |  |  |  |  |  | AUCinf ([2]; single PO 50 mg/kg): 28 µM·h; CL/F ([2]; single PO 50 mg/kg): 67 mL/min/kg; Cmax ([2]; single PO 50 mg/kg): 10.1 ± 4.5 µM; Half-life ([2]; single PO 50 mg/kg): 1.72 h; Tmax ([2]; single PO 50 mg/kg): 0.5 h; AUCinf ([2]; single PO 200 mg/kg): 155.7 µM·h; CL/F ([2]; single PO 200 mg/kg): 54.2 mL/min/kg; Cmax ([2]; single PO 200 mg/kg): 12.7 ± 3.2 µM; Half-life ([2]; single PO 200 mg/kg): 14.1 h; Tmax ([2]; single PO 200 mg/kg): 5 h; V/F ([2]; single PO 200 mg/kg): 3.23 L/kg; F ([2]; mouse, single PO 50 mg/kg vs IV): 70%; F ([2]; mouse, single PO 200 mg/kg vs IV): 98%
N#Cc1cc(NC(=O)C2c3ccccc3C(=O)N(CC(F)(F)F)C2c2cn[nH]c2)ccc1F (racemic) [(r)-SJ311] | 54% and 52% | 20.7 | 27.2 | 13.4 | 1.56 | 2.11 | 42 | 89 | 10.5 ± 5.3 | 4.20 | 0.5 | 23.1 |  |  |  | V/F ([2]; single PO 100 mg/kg): 32.4 L/kg
N#Cc1cc(NC(=O)[C@H]2c3ccccc3C(=O)N(CC(F)(F)F)[C@@H]2c2cccnc2)ccc1F [(+)-SJ733] |  |  |  |  |  |  | 53 | 67 | 11.7 ± 1.2 | 3.17 | 0.5 | 80.8 |  |  |  | AUCinf ([2]; single PO 10 mg/kg): 4.27 µM·h; CL/F ([2]; single PO 10 mg/kg): 83.3 mL/min/kg; Cmax ([2]; single PO 10 mg/kg): 1.38 ± 0.21 µM; Half-life ([2]; single PO 10 mg/kg): 3.63 h; Tmax ([2]; single PO 10 mg/kg): 0.5 h; V/F ([2]; single PO 10 mg/kg): 26.2 L/kg; F ([2]; mouse, single PO 10 mg/kg vs IV): 65%
N#Cc1cc(NC(=O)[C@H]2c3ccccc3C(=O)N(CC(F)(F)F)[C@@H]2c2cccnc2)ccc1F (racemic) [SJ733] |  |  |  |  |  |  |  |  |  |  |  |  | moderate inhibitors | 65 to 81 | 1.38 to 1.65 | clearance ([2]; female, C57BL/6, mouse, plasma, observed in mice, read-out: in vivo clearance (converted)): ~50 mL/min/kg
N#Cc1cc(NC(=O)[C@H]2c3ccccc3C(=O)N(CC(F)(F)F)[C@@H]2c2cn[nH]c2)ccc1F [SJ311] |  |  |  |  |  |  |  |  |  |  |  |  | moderate inhibitors | 22 to 23 | 1.38 to 1.56 | inhibition at 10 µM ([1]; human, pH 7.4, 10 µM, probe substrate Midazolam, replicate measurements): 53%; Mouse F (oral bioavailability) ([2]; mouse, summary over the oral doses studied): 23%
